Where “and” joins values, the source holds several entries; their conditions need not be identical. Equal entries are not always repeated. ± gives the expanded uncertainty stated by the source.
Conditions: Liquid

Compound: CCCO [propan-1-ol]
- vapor or sublimation pressure (298.15 K): 2.786 ± 0.19 kPa
- vapor or sublimation pressure (303.15 K): 3.826 ± 0.22 kPa
- vapor or sublimation pressure (308.15 K): 5.199 ± 0.25 kPa
- vapor or sublimation pressure (313.15 K): 6.986 ± 0.3 kPa

Compound: c1ccccc1 [benzene]
- vapor or sublimation pressure (298.15 K): 12.7 ± 0.44 kPa
- vapor or sublimation pressure (303.15 K): 15.92 ± 0.52 kPa
- vapor or sublimation pressure (308.15 K): 19.66 ± 0.61 kPa
- vapor or sublimation pressure (313.15 K): 24.33 ± 0.73 kPa

Compound: CO [methanol]
- vapor or sublimation pressure (298.15 K): 16.97 ± 0.071 kPa and 16.96 ± 0.55 kPa
- vapor or sublimation pressure (303.15 K): 21.88 ± 0.086 kPa and 21.88 ± 0.67 kPa
- vapor or sublimation pressure (308.15 K): 27.96 ± 0.11 kPa and 27.96 ± 0.82 kPa
- vapor or sublimation pressure (313.15 K): 35.44 ± 0.13 kPa and 35.45 ± 1 kPa
- vapor or sublimation pressure (318.15 K): 44.54 ± 0.16 kPa
- vapor or sublimation pressure (323.15 K): 55.58 ± 0.19 kPa

Compound: CCO [ethanol]
- vapor or sublimation pressure (298.15 K): 7.876 ± 0.32 kPa
- vapor or sublimation pressure (303.15 K): 10.47 ± 0.38 kPa
- vapor or sublimation pressure (308.15 K): 13.77 ± 0.47 kPa
- vapor or sublimation pressure (313.15 K): 17.93 ± 0.57 kPa

Source: the NIST ThermoML archive (doi:10.1016/j.fluid.2005.07.008)
